Results as given in patent publication US7279494B2, “Antimicrobial [3.1.0] bicyclohexylphenyl-oxazolidinone derivatives and analogues” (Pfizer Inc., priority 2003, dated 2007).
≈ marks a conversion by molar mass, not a printed value.

Columns and labels:
Assay type in all cases: cell-based
[1] = tested on: H. influenzae 30063; assay: MIC by standard agar dilution, H. influenzae 30063; details: Mueller Hinton agar, incubated overnight at 35° C.; for MIC: Haemophilus influenzae, 30063, agar dilution, read-out: H. influenzae 30063 MIC
Source text: (§1) The in vitro activity of compounds of the subject invention may be assessed by standard testing procedures such as the determination of minimum inhibitory concentration (MIC) by agar dilution as described in “Approved Standard. Methods for Dilution Antimicrobial Susceptibility Tests for Bacteria that Grow Aerobically,” 3rd ed., published 1993 by the National Committee for Clinical Laboratory standards, Villanova, Pa., USA.
(§2) The in vitro MICs of test compounds may be determined by a standard agar dilution method. A stock drug solution of each analog is prepared in a preferred solvent, usually DMSO:H2O (1:3). Serial 2-fold dilutions of each sample are made using 1.0 mL aliquots of sterile distilled water. To each 1.0 mL aliquot of drug is added 9 mL of molten Mueller Hinton agar medium. The drug-supplemented agar is mixed, poured into 15×100 mm petri dishes, and allowed to solidify and dry prior to inoculation.
(§3) Vials of each of the test organisms are maintained frozen in the vapor phase of a liquid nitrogen freezer. Test cultures are grown overnight at 35° C. on the medium appropriate for the organism. Colonies are harvested with a sterile swab, and cell suspensions are prepared in Trypticase Soy broth (TSB) to equal the turbidity of a 0.5 McFarland standard. A 1:20 dilution of each suspension is made in TSB. The plates containing the drug supplemented agar are inoculated with a 0.001 mL drop of the cell suspension using a Steers replicator, yielding approximately 10^4 to 10^5 cells per spot. The plates are incubated overnight at 35° C.
(§4) Following incubation the Minimum Inhibitory Concentration (MIC μg/mL), the lowest concentration of drug that inhibits visible growth of the organism, is read and recorded.

[2] = tested on: S. aureus UC9213; assay: MIC by standard agar dilution, S. aureus UC9213; details: incubated overnight at 35° C.; for MIC: Staphylococcus aureus, UC9213, Mueller Hinton agar; for S. aureus UC9213 MIC: Mueller Hinton agar
Source text: as §1, §2, §3, §4

[3] = tested on: S. pneumoniae UC9912; assay: MIC by standard agar dilution, S. pneumoniae UC9912; details: incubated overnight at 35° C.; for MIC: Streptococcus pneumoniae, UC9912, Mueller Hinton agar; for S. pneumoniae UC9912 MIC: Mueller Hinton agar
Source text: as §1, §2, §3, §4

| SMILES | MIC [1] [µg/mL] | MIC [2] [µg/mL] | MIC [3] [µg/mL] | S. aureus UC9213 MIC [2] [µg/mL] | S. pneumoniae UC9912 MIC [3] [µg/mL] | H. influenzae 30063 MIC ([1]; agar dilution) [µg/mL] |
| --- | --- | --- | --- | --- | --- | --- |
| CC(=O)NC[C@H]1CN(c2ccc([C@H]3[C@@H]4C[S+]([O-])C[C@@H]43)c(F)c2)C(=O)O1 (stereo partly drawn) [Example 2, N-[((5S)-3-{3-fluoro-4-[exo-(1R,5S)-3-oxido-3-thiabicyclo[3.1.0]hex-6-yl]phenyl}-2-oxo-1,3-oxazolidin-5-yl)methyl]acetamide] | 2 (≈ 5.46 µM) | 2 (≈ 5.46 µM) | 0.25 (≈ 0.682 µM) | – | – | – |
| CC(=O)NC[C@H]1CN(c2ccc([C@H]3[C@@H]4CN(C(=O)CO)C[C@@H]43)c(F)c2)C(=O)O1 [Example 5, N-[((5S)-3-{3-fluoro-4-[exo-(1R,5S)-3-glycoloyl-3-azabicyclo[3.1.0]hex-6-yl]phenyl}-2-oxo-1,3-oxazolidin-5-yl)methyl]acetamide] | 4 (≈ 10.2 µM) | 2 (≈ 5.11 µM) | 0.25 (≈ 0.639 µM) | – | – | – |
| COC(=O)N1C[C@@H]2C(c3ccc(N4C[C@H](CNC(C)=O)OC4=O)cc3F)[C@@H]2C1 (stereo partly drawn) [Example 7, methyl exo-(1R,5S)-6-(4-{(5S)-5-[(acetylamino)methyl]-2-oxo-1,3-oxazolidin-3-yl}-2-fluorophenyl)-3-azabicyclo[3.1.0]hexane-3-carboxylate] | – | – | – | 2 | 0.5 | – |
| CC(=O)NC[C@H]1CN(c2cc(F)c([C@H]3[C@@H]4C[S+]([O-])C[C@@H]43)c(F)c2)C(=O)O1 (stereo partly drawn) [Example 12, N-[((5S)-3-{3,5-difluoro-4-[exo-(1R,5S)-3-oxido-3-thiabicyclo[3.1.0]hex-6-yl]phenyl}-2-oxo-1,3-oxazolidin-5-yl)methyl]acetamide] | – | – | – | 1 | 0.5 | 4 |
| CC(=O)NC[C@H]1CN(c2cc(F)c([C@H]3[C@@H]4CS(=O)(=O)C[C@@H]43)c(F)c2)C(=O)O1 [Example 13, N-[((5S)-3-{4-[exo-(1R,5S)-3,3-dioxido-3-thiabicyclo[3.1.0]hex-6-yl]-3,5-difluorophenyl}-2-oxo-1,3-oxazolidin-5-yl)methyl]acetamide] | 8 (≈ 20 µM) | 1 (≈ 2.5 µM) | 0.5 (≈ 1.25 µM) | – | – | – |
| CC(=O)NC[C@H]1CN(c2cc(F)c([C@H]3[C@@H]4COC[C@@H]43)c(F)c2)C(=O)O1 [Example 14, N-[((5S)-3-{3,5-difluoro-4-[exo-(1R,5S)-3-oxabicyclo[3.1.0]hex-6-yl]phenyl}-2-oxo-1,3-oxazolidin-5-yl)methyl]acetamide] | 16 (≈ 45.4 µM) | 2 (≈ 5.68 µM) | 0.5 (≈ 1.42 µM) | – | – | – |
| CC(=O)NC[C@H]1CN(c2cc(F)c([C@H]3[C@@H]4CN(C(=O)CO)C[C@@H]43)c(F)c2)C(=O)O1 [Example 15, N-[((5S)-3-{3,5-difluoro-4-[exo-(1R,5S)-3-glycoloyl-3-azabicyclo[3.1.0]hex-6-yl]phenyl}-2-oxo-1,3-oxazolidin-5-yl)methyl]acetamide] | 16 (≈ 39.1 µM) | 2 (≈ 4.89 µM) | 0.5 (≈ 1.22 µM) | – | – | – |
| CC(=O)NC[C@H]1CN(c2ccc([C@H]3[C@@H]4COC[C@@H]43)cc2)C(=O)O1 [Example 16, N-[((5S)-3-{4-[exo-(1R,5S)-3-oxabicyclo[3.1.0]hex-6-yl]phenyl}-2-oxo-1,3-oxazolidin-5-yl)methyl]acetamide] | 16 (≈ 50.6 µM) | 4 (≈ 12.6 µM) | 2 (≈ 6.32 µM) | – | – | – |
| CC(=O)NC[C@H]1CN(c2ccc([C@H]3[C@@H]4C[S+]([O-])C[C@@H]43)cc2)C(=O)O1 (stereo partly drawn) [Example 18, N-[((5S)-3-{4-[exo-(1R,5S)-3-oxido-3-thiabicyclo[3.1.0]hex-6-yl]phenyl}-2-oxo-1,3-oxazolidin-5-yl)methyl]acetamide] | 4 (≈ 11.5 µM) | 2 (≈ 5.74 µM) | 0.5 (≈ 1.44 µM) | – | – | – |

The next lines start with results.

| MIC [1] [µg/mL] | MIC [2] [µg/mL] | MIC [3] [µg/mL] | SMILES | S. aureus UC9213 MIC [2] [µg/mL] | S. pneumoniae UC9912 MIC [3] [µg/mL] | H. influenzae 30063 MIC ([1]; agar dilution) [µg/mL] |
| --- | --- | --- | --- | --- | --- | --- |
| 4 (≈ 10.5 µM) | 2 (≈ 5.23 µM) | 0.25 (≈ 0.654 µM) | CC(=O)NC[C@H]1CN(c2ccc([C@H]3[C@@H]4CS(=O)(=O)C[C@@H]43)c(F)c2)C(=O)O1 [Example 3, N-[((5S)-3-{4-[exo-(1R,5S)-3,3-dioxido-3-thiabicyclo[3.1.0]hex-6-yl]-3-fluorophenyl}-2-oxo-1,3-oxazolidin-5-yl)methyl]acetamide] | – | – | – |
| 4 (≈ 12 µM) | 4 (≈ 12 µM) | 0.5 (≈ 1.5 µM) | CC(=O)NC[C@H]1CN(c2ccc([C@H]3[C@@H]4COC[C@@H]43)c(F)c2)C(=O)O1 [Example 4, N-[((5S)-3-{3-fluoro-4-[exo-(1R,5S)-3-oxabicyclo[3.1.0]hex-6-yl]phenyl}-2-oxo-1,3-oxazolidin-5-yl)methyl]acetamide] | – | – | – |
| 4 (≈ 9.02 µM) | 0.5 (≈ 1.13 µM) | 0.25 (≈ 0.564 µM) | O=C(CO)N1C[C@@H]2[C@H](C1)[C@H]2c1ccc(N2C[C@H](CNC(=S)C(F)F)OC2=O)cc1F [Example 6, 2,2-difluoro-N-[((5S)-3-{3-fluoro-4-[exo-(1R,5S)-3-gycoloyl-3-azabicyclo[3.1.0]hex-6-yl]phenyl}-2-oxo-1,3-oxazolidin-5-yl)methyl]ethanethioamide] | – | – | – |
| 8 (≈ 22.1 µM) | 4 (≈ 11.1 µM) | 1 (≈ 2.77 µM) | CC(=O)NC[C@H]1CN(c2ccc([C@H]3[C@@H]4CN(C=O)C[C@@H]43)c(F)c2)C(=O)O1 [Example 8, N-[((5S)-3-{3-fluoro-4-[exo-(1R,5S)-3-formyl-3-azabicyclo[3.1.0]hex-6-yl]phenyl}-2-oxo-1,3-oxazolidin-5-yl)methyl]acetamide] | – | – | – |
| 8 (≈ 19 µM) | 8 (≈ 19 µM) | 1 (≈ 2.37 µM) | CC(=O)NC[C@H]1CN(c2ccc([C@H]3[C@@H]4CN(C(=O)[C@@H](O)CO)C[C@@H]43)c(F)c2)C(=O)O1 [Example 9, N-[((5S)-3-{3-fluoro-4-[exo-(1R,5S)-3-((2S)-2,3-dihydroxypropanoyl)-3-azabicyclo[3.1.0]hex-6-yl]phenyl}-2-oxo-1,3-oxazolidin-5-yl)methyl]acetamide] | – | – | – |
| 4 (≈ 10.6 µM) | 2 (≈ 5.31 µM) | 0.5 (≈ 1.33 µM) | CC(=O)NC[C@H]1CN(c2ccc([C@H]3[C@@H]4CN(C(N)=O)C[C@@H]43)c(F)c2)C(=O)O1 [Example 10, exo-(1R,5S)-6-(4-{(5S)-5-[(acetylamino)methyl]-2-oxo-1,3-oxazolidin-3-yl}-2-fluorophenyl)-3-azabicyclo[3.1.0]hexane-3-carboxamide] | – | – | – |
| 2 (≈ 4.67 µM) | 0.5 (≈ 1.17 µM) | 0.25 (≈ 0.584 µM) | NC(=O)N1C[C@@H]2[C@H](C1)[C@H]2c1ccc(N2C[C@H](CNC(=S)C(F)F)OC2=O)cc1F [Example 11, exo-(1R,5S)-6-[4-((5S)-5-{[(2,2-difluoroethanethioyl)amino]methyl}-2-oxo-1,3-oxazolidin-3-yl)-2-fluorophenyl]-3-azabicyclo[3.1.0]hexane-3-carboxamide] | – | – | – |
| 8 (≈ 21.4 µM) | 4 (≈ 10.7 µM) | 2 (≈ 5.36 µM) | CC(=O)NC[C@H]1CN(c2ccc([C@H]3[C@@H]4CN(C(=O)CO)C[C@@H]43)cc2)C(=O)O1 [Example 17, N-[((5S)-3-{4-[exo-(1R,5S)-3-glycoloyl-3-azabicyclo[3.1.0]hex-6-yl]phenyl}-2-oxo-1,3-oxazolidin-5-yl)methyl]acetamide] | – | – | – |
| 8 (≈ 22 µM) | 4 (≈ 11 µM) | 1 (≈ 2.74 µM) | CC(=O)NC[C@H]1CN(c2ccc([C@H]3[C@@H]4CS(=O)(=O)C[C@@H]43)cc2)C(=O)O1 [Example 19, N-[((5S)-3-{4-[exo-(1R,5S)-3,3-dioxido-3-thiabicyclo[3.1.0]hex-6-yl]phenyl}-2-oxo-1,3-oxazolidin-5-yl)methyl]acetamide] | – | – | – |
